The assay concerns the target T1, human β-Secretase (soluble part, AA1-AA460; sBACE-Fc) (Homo sapiens, UniProt P56817).
T1 construct: The soluble part of the human β-Secretase (AA1-AA460) was cloned into the ASP2-Fc10-1-IRES-GFP-neoK mammalian expression vector; made in house
As to the kind of experiment: TR-FRET assay. The class given is biochemical. To be noted: substrate (Europium)CEVNLDAEFK(Qsy7) 100 nM, pH 4.5, 15 min at RT; read-out: IC50 (nM) in TR-FRET assay. Background: TR-FRET usually uses a lanthanide donor and a delayed reading to cut background.

Molecules are shown by their SMILES. Where a name gives a salt, the structure may show the parent alone.

T1 sequence (P56817 22-460): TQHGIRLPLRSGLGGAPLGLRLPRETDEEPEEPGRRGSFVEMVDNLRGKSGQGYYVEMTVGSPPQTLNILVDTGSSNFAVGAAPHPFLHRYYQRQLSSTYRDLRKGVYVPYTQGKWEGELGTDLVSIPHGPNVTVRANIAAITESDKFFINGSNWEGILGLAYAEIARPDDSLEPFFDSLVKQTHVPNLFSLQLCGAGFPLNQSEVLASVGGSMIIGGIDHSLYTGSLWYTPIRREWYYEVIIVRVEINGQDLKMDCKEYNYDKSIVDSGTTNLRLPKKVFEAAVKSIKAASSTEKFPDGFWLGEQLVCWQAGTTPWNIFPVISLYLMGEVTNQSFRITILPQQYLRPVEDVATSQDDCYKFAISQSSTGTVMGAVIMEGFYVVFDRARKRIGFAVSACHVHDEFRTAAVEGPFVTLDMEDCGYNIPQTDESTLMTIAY

With `CN1C(=O)C(c2ccc(OS(C)(=O)=O)cc2)(c2ccc(F)c(-c3cncs3)c2)N=C1N` (stereo not drawn) [Example 188, 4-{2-Amino-4-[4-fluoro-3-(1,3-thiazol-5-yl)phenyl]-1-methyl-5-oxo-4,5-dihydro-1H-imidazol-4-yl}phenyl methanesulfonate hydrochloride], the IC50 (as a rule, the point on the concentration scale where inhibition reaches its midpoint) stood at 379 nM.

With `COc1cc(OS(C)(=O)=O)cc(-c2cc(C3(C4CCOCC4)N=C(N)N(C)C3=O)ccc2F)c1` (stereo not drawn) [Example 192, 5′-[2-Amino-1-methyl-5-oxo-4-(tetrahydro-2H-pyran-4-yl)-4,5-dihydro-1H-imidazol-4-yl]-2′-fluoro-5-methoxybiphenyl-3-yl methanesulfonate hydrochloride], the half-inhibitory concentration (IC50) stood at 1260 nM.

`CN1C(=O)C(c2ccc(F)c(-c3cc(Cl)cc(OS(C)(=O)=O)c3)c2)(C2CCOCC2)N=C1N` (stereo not drawn) [Example 193, 5′-[2-Amino-1-methyl-5-oxo-4-(tetrahydro-2H-pyran-4-yl)-4,5-dihydro-1H-imidazol-4-yl]-5-chloro-2′-fluorobiphenyl-3-yl methanesulfonate hydrochloride]: the IC50 was 1180 nM.

For the compound `CN1C(=O)C(c2cccc(OS(C)(=O)=O)c2)(c2ccc(F)c(C3=CCCC3)c2)N=C1N` (stereo not drawn) [Example 194, 3-[2-Amino-4-(3-cyclopent-1-en-1-yl-4-fluorophenyl)-1-methyl-5-oxo-4,5-dihydro-1H-imidazol-4-yl]phenyl methanesulfonate hydrochloride], the half-maximal inhibitory concentration (IC50) came out at 284 nM.

In the case of `CN1C(=O)C(c2cccc(OS(C)(=O)=O)c2)(c2cccc(C3=CCCC3)c2)N=C1N` (stereo not drawn) [Example 195, 3-[2-Amino-4-(3-cyclopent-1-en-1-yl-phenyl)-1-methyl-5-oxo-4,5-dihydro-1H-imidazol-4-yl]phenyl methanesulfonate hydrochloride], the IC50 is 646 nM.

Turning to `CN1C(=O)C(c2cccc(OS(=O)(=O)C(F)(F)F)c2)(c2cccc(C3=CCCC3)c2)N=C1N` (stereo not drawn) [Example 197, 3-[2-Amino-4-(3-cyclopent-1-en-1-ylphenyl)-1-methyl-5-oxo-4,5-dihydro-1H-imidazol-4-yl]phenyl trifluoromethanesulfonate hydrochloride], the half-inhibitory concentration (IC50) amounted to 721 nM.

Turning to `CCc1cc(C2(c3ccc(F)c(-c4cc(OC)cc(OS(C)(=O)=O)c4)c3)N=C(N)N(C)C2=O)cc(CC)n1` (stereo not drawn) [Example 209, 5′-[2-Amino-4-(2,6-diethylpyridin-4-yl)-1-methyl-5-oxo-4,5-dihydro-1H-imidazol-4-yl]-2′-fluoro-5-methoxybiphenyl-3-yl methanesulfonate hydrochloride], the IC50 was 99 nM.

With `CCc1cc(C2(c3ccc(F)c(-c4cc(Cl)cc(OS(C)(=O)=O)c4)c3)N=C(N)N(C)C2=O)cc(CC)n1` (stereo not drawn) [Example 210, 5′-[2-Amino-4-(2,6-diethylpyridin-4-yl)-1-methyl-5-oxo-4,5-dihydro-1H-imidazol-4-yl]-5-chloro-2′-fluorobiphenyl-3-yl methanesulfonate hydrochloride], the IC50 came to 137 nM.

In the case of `COc1cc(OS(C)(=O)=O)cc(-c2cc(C3(c4ccnc(C)c4)N=C(N)N(C)C3=O)ccc2F)c1` (stereo not drawn) [Example 211, 5′-[2-Amino-1-methyl-4-(2-methylpyridin-4-yl)-5-oxo-4,5-dihydro-1H-imidazol-4-yl]-2′-fluoro-5-methoxybiphenyl-3-yl methanesulfonate hydrocloride], the IC50 was 104 nM.

Regarding `CN1C(=O)C(c2cccc(OS(=O)(=O)c3c(F)cccc3F)c2)(c2ccc(F)c(Br)c2)N=C1N` (stereo not drawn) [Example 225, 3-[2-Amino-4-(3-bromo-4-fluorophenyl)-1-methyl-5-oxo-4,5-dihydro-1H-imidazol-4-yl]phenyl 2,6-difluorobenzenesulfonate], the IC50 was determined as 633 nM.

As to `CN1C(=O)C(c2cccc(OS(=O)(=O)c3ccccn3)c2)(c2ccc(F)c(Br)c2)N=C1N` (stereo not drawn) [Example 226, 3-[2-Amino-4-(3-bromo-4-fluorophenyl)-1-methyl-5-oxo-4,5-dihydro-1H-imidazol-4-yl]phenyl pyridine-2-sulfonate], the IC50 was determined as 859 nM.

On to `CN1C(=O)C(c2cccc(OS(=O)(=O)c3ccc(-n4cccn4)cc3)c2)(c2ccc(F)c(Br)c2)N=C1N` (stereo not drawn) [Example 227, 3-[2-Amino-4-(3-bromo-4-fluorophenyl)-1-methyl-5-oxo-4,5-dihydro-1H-imidazol-4-yl]phenyl 4-(1H-pyrazol-1-yl)benzenesulfonate], for which the IC50 turned out to be 1460 nM.

Take `CN1C(=O)C(c2cccc(OS(=O)(=O)c3ccc4c(c3)CCC4)c2)(c2ccc(F)c(Br)c2)N=C1N` (stereo not drawn) [Example 228, 3-[2-Amino-4-(3-bromo-4-fluorophenyl)-1-methyl-5-oxo-4,5-dihydro-1H-imidazol-4-yl]phenyl indane-5-sulfonate]: the IC50 was 788 nM.

On to `CN1C(=O)C(c2cccc(OS(=O)(=O)c3ccc4c(c3)oc(=O)n4C)c2)(c2ccc(F)c(Br)c2)N=C1N` (stereo not drawn) [Example 229, 3-[2-Amino-4-(3-bromo-4-fluorophenyl)-1-methyl-5-oxo-4,5-dihydro-1H-imidazol-4-yl]phenyl 3-methyl-2-oxo-2,3-dihydro-1,3-benzoxazole-6-sulfonate], for which the IC50 came out at 299 nM.

On to `Cc1nn(C)c(Cl)c1S(=O)(=O)Oc1cccc(C2(c3ccc(F)c(Br)c3)N=C(N)N(C)C2=O)c1` (stereo not drawn) [Example 230, 3-[2-Amino-4-(3-bromo-4-fluorophenyl)-1-methyl-5-oxo-4,5-dihydro-1H-imidazol-4-yl]phenyl 5-chloro-1,3-dimethyl-1H-pyrazole-4-sulfonate], for which the 50% inhibitory concentration (IC50) came to 129 nM.

With `CN1C(=O)C(c2cccc(OS(=O)(=O)c3ccc(Cl)s3)c2)(c2ccc(F)c(Br)c2)N=C1N` (stereo not drawn) [Example 231, 3-[2-Amino-4-(3-bromo-4-fluorophenyl)-1-methyl-5-oxo-4,5-dihydro-1H-imidazol-4-yl]phenyl 5-chlorothiophene-2-sulfonate], the IC50 came to 859 nM.

As for `CN1C(=O)C(c2cccc(OS(=O)(=O)c3cn(C)cn3)c2)(c2ccc(F)c(Br)c2)N=C1N` (stereo not drawn) [Example 232, 3-[2-Amino-4-(3-bromo-4-fluorophenyl)-1-methyl-5-oxo-4,5-dihydro-1H-imidazol-4-yl]phenyl 1-methyl-1H-imidazole-4-sulfonate], the IC50 was 594 nM.

Turning to `CN1C(=O)C(c2cccc(OS(=O)(=O)c3c(Cl)nc4sccn34)c2)(c2ccc(F)c(Br)c2)N=C1N` (stereo not drawn) [Example 233, 3-[2-Amino-4-(3-bromo-4-fluorophenyl)-1-methyl-5-oxo-4,5-dihydro-1H-imidazol-4-yl]phenyl 6-chloroimidazo[2,1-b][1,3]thiazole-5-sulfonate], the IC50 was 321 nM.

In the case of `CCC(C)(C)c1ccc(S(=O)(=O)Oc2cccc(C3(c4ccc(F)c(-c5cncnc5)c4)N=C(N)N(C)C3=O)c2)cc1` (stereo not drawn) [Example 234, 3-[2-Amino-4-(4-fluoro-3-pyrimidin-5-ylphenyl)-1-methyl-5-oxo-4,5-dihydro-1H-imidazol-4-yl]phenyl 4-(1,1-dimethylpropyl)benzenesulfonate], the IC50 was 82 nM.

Take `COc1ccc(OC)c(S(=O)(=O)Oc2cccc(C3(c4ccc(F)c(-c5cncnc5)c4)N=C(N)N(C)C3=O)c2)c1` (stereo not drawn) [Example 235, 3-[2-Amino-4-(4-fluoro-3-pyrimidin-5-ylphenyl)-1-methyl-5-oxo-4,5-dihydro-1H-imidazol-4-yl]phenyl 2,5-dimethoxybenzenesulfonate]: the IC50 was found to be 589 nM.

For `CN1C(=O)C(c2cccc(OS(=O)(=O)c3c(F)cccc3F)c2)(c2ccc(F)c(-c3cncnc3)c2)N=C1N` (stereo not drawn) [Example 236, 3-[2-Amino-4-(4-fluoro-3-pyrimidin-5-ylphenyl)-1-methyl-5-oxo-4,5-dihydro-1H-imidazol-4-yl]phenyl 2,6-difluorobenzenesulfonate], the IC50 was found to be 65 nM.

As to `CN1C(=O)C(c2cccc(OS(=O)(=O)c3ccccn3)c2)(c2ccc(F)c(-c3cncnc3)c2)N=C1N` (stereo not drawn) [Example 237, 3-[2-Amino-4-(4-fluoro-3-pyrimidin-5-ylphenyl)-1-methyl-5-oxo-4,5-dihydro-1H-imidazol-4-yl]phenyl pyridine-2-sulfonate], the half-maximal inhibitory concentration (IC50) worked out at 124 nM.

With `CN1C(=O)C(c2cccc(OS(=O)(=O)c3ccc(-n4cccn4)cc3)c2)(c2ccc(F)c(-c3cncnc3)c2)N=C1N` (stereo not drawn) [Example 238, 3-[2-Amino-4-(4-fluoro-3-pyrimidin-5-ylphenyl)-1-methyl-5-oxo-4,5-dihydro-1H-imidazol-4-yl]phenyl 4-(1H-pyrazol-1-yl)benzenesulfonate], the IC50 turned out to be 46 nM.

With `CN1C(=O)C(c2cccc(OS(=O)(=O)c3ccc4c(c3)CCC4)c2)(c2ccc(F)c(-c3cncnc3)c2)N=C1N` (stereo not drawn) [Example 239, 3-[2-Amino-4-(4-fluoro-3-pyrimidin-5-ylphenyl)-1-methyl-5-oxo-4,5-dihydro-1H-imidazol-4-yl]phenyl indane-5-sulfonate], the IC50 turned out to be 19 nM.

As for `CN1C(=O)C(c2cccc(OS(=O)(=O)c3ccc4c(c3)oc(=O)n4C)c2)(c2ccc(F)c(-c3cncnc3)c2)N=C1N` (stereo not drawn) [Example 240, 3-[2-Amino-4-(4-fluoro-3-pyrimidin-5-ylphenyl)-1-methyl-5-oxo-4,5-dihydro-1H-imidazol-4-yl]phenyl 3-methyl-2-oxo-2,3-dihydro-1,3-benzoxazole-6-sulfonate], the IC50 was found to be 20 nM.

As to `Cc1nn(C)c(Cl)c1S(=O)(=O)Oc1cccc(C2(c3ccc(F)c(-c4cncnc4)c3)N=C(N)N(C)C2=O)c1` (stereo not drawn) [Example 241, 3-[2-Amino-4-(4-fluoro-3-pyrimidin-5-ylphenyl)-1-methyl-5-oxo-4,5-dihydro-1H-imidazol-4-yl]phenyl 5-chloro-1,3-dimethyl-1H-pyrazole-4-sulfonate], the half-inhibitory concentration (IC50) was found to be 20 nM.

Turning to `CN1C(=O)C(c2cccc(OS(=O)(=O)c3ccc(Cl)s3)c2)(c2ccc(F)c(-c3cncnc3)c2)N=C1N` (stereo not drawn) [Example 242, 3-[2-Amino-4-(4-fluoro-3-pyrimidin-5-ylphenyl)-1-methyl-5-oxo-4,5-dihydro-1H-imidazol-4-yl]phenyl-5-chlorothiophene-2-sulfonate], the IC50 is 31 nM.
